According to patent EP0953345A1, “Use of at least a hydroxystilbene as an agent for decreasing micro-organism adhesion” (priority 1998, dated 1999):

Tested on: Staphylococcus epidermis
Assay: ex vivo bacteria/skin adhesion model on intact human skin explants (3H-thymidine-labelled bacteria, liquid scintillation counting)
Assay type: cell-based
From the text: L'activité du resvératrol sur l'adhésion de micro-organismes sur la peau ou sur les muqueuses humaines est testée sur un modèle d'adhésion bactéries/peau, tel que décrit ci-après.
Ce modèle d'adhésion bactéries/peau ex vivo est basé sur l'utilisation d'explants de peau humaine intacte montée en sandwich entre une plaque 96 puits sans fond et un support en Plexiglas. Les puits individualisés étanches permettent de tester dans un format standard l'effet du resvératrol sur l'adhésion de Staphylococcus epidermis (bactéries résidentes) à la surface de la peau. Les bactéries sont radio marquées en phase de croissance par incorporation de 3H-thymidine. Cette flore bactérienne est ensuite déposée dans chaque puits. Après une heure d'incubation à 20°C, les puits sont lavés trois fois avec du tampon phosphate salin (PBS) ce qui permet d'éliminer les bactéries libres. Le resvératrol est ensuite ajouté à 0,1 µM et 10 µM et incubé 1 heure à 20°C. A l'issue de cette incubation le contenu de chaque puits est récupéré et compté en scintillation liquide (bactéries désorbées). Les puits sont ensuite lavés avec une solution chaotropique qui permet d'éluer les bactéries adhérentes. Les solutions de lavages sont également compté en scintillation liquide (bactéries adhérentes). Un témoin positif (Fucogel® Acide (poly-[(α-1,3)-Fuc-(α-1,3)-Gal-(α-1,3)-galacturonique]) est inclus à l'étude comme référence.

[1] = Staphylococcus, 1 h, read-out: Bactéries adhérentes
[2] = Staphylococcus, read-out: inhibition de l'adhésion des bactéries

**Q.** Which “dose dependence of the activity on adhesion of bacteria to human skin (in words)” value (0,1 µM and 10 µM) does the source give for `Oc1ccc(C=Cc2cc(O)cc(O)c2)cc1` [resvératrol, 3,4',5-trihydroxystilbène] here?
**A.** Its value is “dose dépendante”.

**Q.** What about the activity at 0.1 µM [1] of the same molecule?
**A.** Its activity at 0.1 µM is 71%.

**Q.** What about the activity at 10 µM [1] of the same molecule?
**A.** Its activity at 10 µM is 64%.

**Q.** What about the inhibition at 1 µM [2] of the same molecule?
**A.** The inhibition at 1 µM was 29%.

**Q.** What about the inhibition at 10 µM [2] of the same molecule?
**A.** The inhibition at 10 µM was 36%.
